One data set addresses Acetylcholinesterase (Electrophorus electricus, UniProt O42275). The data set can be described thus: Inhibition of electric eel AChE using acetylthiocholine as substrate assessed as concentration of 5-thio-2-nitrobenzoic acid ion formed by spectrophotometric/Ellman's method. For orientation: DTNB colorimetry detects thiols as they appear.
A short description of data set [1]: Permeability of the compound by PAMPA-BBB assay. In general terms: The PAMPA barrier holds no transporters, so it reflects passive diffusion.

What is called IC50 is the midpoint of a concentration-inhibition curve. For orientation: Papp means the rate of passage across a membrane or cell layer, normalised by area and donor concentration. Higher therefore signals fast passage.

Structures are written as SMILES.

Chain of Acetylcholinesterase (O42275 whole entry, the tested form may be a part): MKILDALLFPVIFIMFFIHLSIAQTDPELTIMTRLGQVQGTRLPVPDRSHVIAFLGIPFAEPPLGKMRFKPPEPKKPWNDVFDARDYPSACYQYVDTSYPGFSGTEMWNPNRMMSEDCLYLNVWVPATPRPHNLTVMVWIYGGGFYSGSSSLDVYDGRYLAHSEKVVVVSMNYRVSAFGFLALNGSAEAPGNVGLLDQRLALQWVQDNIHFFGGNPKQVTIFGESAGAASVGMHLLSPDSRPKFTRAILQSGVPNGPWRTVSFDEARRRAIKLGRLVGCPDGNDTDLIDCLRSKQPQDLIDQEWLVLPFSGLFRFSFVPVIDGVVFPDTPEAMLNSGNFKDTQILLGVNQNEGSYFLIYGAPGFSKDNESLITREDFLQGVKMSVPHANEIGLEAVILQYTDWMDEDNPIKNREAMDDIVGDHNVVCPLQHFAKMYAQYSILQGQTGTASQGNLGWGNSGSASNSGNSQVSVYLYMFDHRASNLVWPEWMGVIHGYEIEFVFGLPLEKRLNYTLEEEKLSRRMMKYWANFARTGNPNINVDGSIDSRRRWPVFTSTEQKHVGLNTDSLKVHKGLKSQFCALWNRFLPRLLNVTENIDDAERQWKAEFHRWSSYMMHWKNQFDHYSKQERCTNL

`COc1c2c(cc3c1[C@@]14CCN(C3)[C@@H]1C[C@@H](OC)[C@@H]1O[C@@H]14)OCO2`: at Acetylcholinesterase, the IC50 turned out to be 7.4 µM. The Papp in data set [1] stood at 18.3 ×10⁻⁶ cm/s.

Turning to `COc1cc2c(cc1O)CN1CC[C@@]23C=CC(O)C[C@H]13` (some centres undefined), the IC50 at Acetylcholinesterase came out at 57.4 µM. The compound also had a Papp in data set [1] of 0.7 ×10⁻⁶ cm/s.

The values are drawn from ChEMBL document CHEMBL3585247, “In Vitro Inhibitory Effects of 8-O-Demethylmaritidine and Undulatine on Acetylcholinesterase and Their Predicted Penetration across the Blood-Brain Barrier” (J Nat Prod, 2015).
